Measured values as given in patent US20180214395A1 (priority 2017, published 2018).
Where “and” joins values, the source holds several entries; their conditions need not be identical. Identical values can stand only once. Entries after “also recorded” stand apart in the source; their conditions may differ. Like-named read-outs stand apart in the source and are kept apart here.

Assays:
[1] = MAD study: pupillary constriction; type: in vivo, human; conditions: mean (SD)
[2] = tested on: BDNF; experiment: BDNF levels (ELISA) in MAD study subjects; type: in vivo, human; conditions: for BDNF, individual subjects: hydrochloride
[3] = Serum glucose (colorimetric kit) in MAD 25 mg subjects; type: in vivo, human; conditions: 25 mg per day for 10 days; for Mean serum glucose change vs baseline: six treated subjects; for serum glucose, individual subjects: hydrochloride
[4] = Body weight gain in rats (chronic constrictive nerve injury model experiment); type: in vivo; conditions: rat
[5] = Forced swim test; type: in vivo, rat; conditions: for Immobility, Mean frequency / Swimming, Mean frequency: single administration 24 hours prior, 60 counts per subject; for Immobility, Mean Diff. (Fisher's PLSD) / Swimming, Mean Diff. (Fisher's PLSD): Vehicle minus treatment
[6] = Locomotor activity assessment (distance traveled, rearing); type: in vivo, rat; conditions: for Distance traveled min 1-5, Mean / Rearing min 1-5, Mean / Total Distance Traveled, Mean / Total Rearing, Mean: 24 hours prior to testing; for Total Rearing, Mean: 60 minute test
[7] = Modified Mini Mental State (3MS) in patients with chronic cancer pain (phase I-2a study); type: in vivo, human; conditions: 40 mg every 12 hours for 12 days
[8] = both, human, in vivo
[9] = in vivo
[10] = in vivo; remark: listed apart in the source
[11] = human, in vivo
[12] = biological target: T1, serotonin transporter (SERT or 5-HT) (Rattus norvegicus, UniProt P31652)
T1 sequence (P31652 whole entry): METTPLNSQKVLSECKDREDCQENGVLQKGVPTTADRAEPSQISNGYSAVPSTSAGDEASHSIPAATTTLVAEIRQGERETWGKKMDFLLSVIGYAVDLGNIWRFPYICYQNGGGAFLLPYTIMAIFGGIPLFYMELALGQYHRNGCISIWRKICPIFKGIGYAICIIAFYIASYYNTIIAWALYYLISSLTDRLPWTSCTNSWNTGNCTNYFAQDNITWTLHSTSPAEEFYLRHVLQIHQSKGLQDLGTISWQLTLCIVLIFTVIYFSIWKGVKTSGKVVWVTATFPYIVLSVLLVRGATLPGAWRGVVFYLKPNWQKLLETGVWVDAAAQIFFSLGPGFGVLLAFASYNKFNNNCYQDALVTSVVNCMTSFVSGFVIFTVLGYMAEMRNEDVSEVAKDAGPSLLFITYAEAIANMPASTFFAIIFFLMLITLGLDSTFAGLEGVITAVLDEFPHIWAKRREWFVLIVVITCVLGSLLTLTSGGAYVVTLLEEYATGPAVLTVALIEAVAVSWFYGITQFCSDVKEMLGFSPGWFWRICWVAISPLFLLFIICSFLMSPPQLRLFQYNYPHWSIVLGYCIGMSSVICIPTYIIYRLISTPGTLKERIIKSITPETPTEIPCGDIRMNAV

[13] = biological target: T1, serotonin transporter (SERT or 5-HT); experiment: biochemical
[14] = rat, 24 h after dosing, one-way ANOVA

CCC(=O)C(C[C@H](C)N(C)C)(c1ccccc1)c1ccccc1 [d-methadone]
Greatest mean pupillary constriction (MPC) ([1]; MAD 25 mg, Day 9): −1.32 (0.553) mm
Greatest mean pupillary constriction (MPC) ([1]; MAD 50 mg, Day 6): −1.43 (0.175) mm
Greatest mean pupillary constriction (MPC) ([1]; MAD 75 mg, Day 5): −2.24 (0.619) mm
Subjects with increase in BDNF levels post treatment vs pre-treatment ([2]; 25 mg a day for ten days): 6 of 6
BDNF serum levels ([2]; 25 mg, healthy volunteers): significantly increases
BDNF levels after treatment vs pre-treatment ([2]; 50 mg and 75 mg doses, not statistically significant against placebo): consistently showed an increase
BDNF, individual subjects ([2]; Day 2 hr 4, 25 mg a day oral): BDNF 3.603 ng/L; also recorded: BDNF 2.529 ng/L; also recorded: BDNF 2.038 ng/L; also recorded: BDNF 1.862 ng/L; also recorded: BDNF 8.995 ng/L; also recorded: BDNF 2.750 ng/L
BDNF, individual subjects ([2]; Day 6 hr 4, 25 mg a day oral): 4.820 ng/mL and 2.920 ng/mL and 2.348 ng/mL and 2.458 ng/mL and 3.790 ng/mL
BDNF, individual subjects ([2]; Day 10 hr 4, 25 mg a day oral): 4.004 ng/mL and 10.697 ng/mL and 2.853 ng/mL and 4.347 ng/mL and 5.459 ng/mL and 3.733 ng/mL
BDNF, individual subjects ([2]; Pre-Treatment (baseline), MAD 25 mg subjects): 1.143 ng/mL and BDNF 0.612 ng/mL and 0.376 ng/mL and 0.460 ng/mL and 0.497 ng/mL and 1.922 ng/mL
BDNF_T0 Mean ([2]; baseline, w/o placebo, N 6): .83100 ng/mL
BDNF_D2 Mean ([2]; day 2, 25 mg a day, w/o placebo, N 6): 3.63 ng/mL
BDNF_D6 Mean ([2]; day 6, 25 mg a day, w/o placebo, N 5): 3.267 ng/mL
BDNF_D10 Mean ([2]; day 10, 25 mg a day, w/o placebo, N 6): 5.182 ng/mL
Mean serum glucose change vs baseline ([3]; day 10): −0.08 mmol/I
Mean serum glucose change vs baseline ([3]; day 12): −0.43 mmol/I
serum glucose, individual subjects ([3]; Day-10): 3.2 mmol/I and 4.9 mmol/I
serum glucose, individual subjects ([3]; Day-12): 4.9 mmol/I (3×) and 4.1 mmol/I
mean weight gain baseline to day 15 ([4]; 10 mg/kg s.c. once daily 15 days): 41 grams
mean weight gain baseline to day 15 ([4]; 20 mg/kg s.c. once daily 15 days): 36 grams
Body weight gain vs vehicle-treated animals ([4]; 40 mg/kg S.C. once daily for 15 days): lower weight gain
mean weight gain baseline to day 15 ([4]; 40 mg/kg s.c. once daily 15 days): 22 grams
Immobility, Mean frequency ([5]; 10 mg/kg): 31.400
Swimming, Mean frequency ([5]; 10 mg/kg): 20.200
Immobility, Mean frequency ([5]; 20 mg/kg): 23.556
Swimming, Mean frequency ([5]; 20 mg/kg): 32.667
Immobility, Mean frequency ([5]; 40 mg/kg): 23.200
Swimming, Mean frequency ([5]; 40 mg/kg): 26.200
Immobility, Mean Diff. (Fisher's PLSD) ([5]; 10 mg/kg): 17.600
Swimming, Mean Diff. (Fisher's PLSD) ([5]; 10 mg/kg): −12.978
Immobility, Mean Diff. (Fisher's PLSD) ([5]; 20 mg/kg): 25.444
Swimming, Mean Diff. (Fisher's PLSD) ([5]; 20 mg/kg): −25.444
Immobility, Mean Diff. (Fisher's PLSD) ([5]; 40 mg/kg): 25.800
Swimming, Mean Diff. (Fisher's PLSD) ([5]; 40 mg/kg): −18.978
Distance traveled min 1-5, Mean ([6]; 10 mg/kg): 597.167
Rearing min 1-5, Mean ([6]; 10 mg/kg): 26.333
Total Distance Traveled, Mean ([6]; 10 mg/kg): 2605.500 cm/60 min
Total Rearing, Mean ([6]; 10 mg/kg): 119.167
Distance traveled min 1-5, Mean ([6]; 20 mg/kg): 556.833
Rearing min 1-5, Mean ([6]; 20 mg/kg): 28.667
Total Distance Traveled, Mean ([6]; 20 mg/kg): 2060.667 cm/60 min
Total Rearing, Mean ([6]; 20 mg/kg): 100.167
Distance traveled min 1-5, Mean ([6]; 40 mg/kg): 447.500
Rearing min 1-5, Mean ([6]; 40 mg/kg): 17.333
Total Distance Traveled, Mean ([6]; 40 mg/kg): 1773.000 cm/60 min
Total Rearing, Mean ([6]; 40 mg/kg): 75.000
Locomotor activity: total distance traveled (60 min) [6, 14]: no significant effect
Locomotor activity: total rearing frequency (60 min) [6, 14]: no significant effect
Patients with 3MS improvement by at least one point [7]: five out of six
Number of doses to steady state [8]: 6-7 doses
AUCtau ([8]; 25 mg): 4392 ng·h/mL
AUCtau ([8]; 50 mg): 10,147 h*ng/mL
AUCtau ([8]; 75 mg): 10,537 h*ng/mL
Tolerability [9]: well tolerated
TEAE: any event ([10]; both, human): 5 n (%) [number of events]
TEAE: dizziness ([10]; both, human): 1 n (%) [number of events]
Tolerability [10]: well tolerated
Maximum QTcF interval observed ([11]; both): 462 ms
Model-predicted ΔΔQT effect at geometric mean plasma concentration ([11]; both): 16.0 to 21.0 ms
QTc, individual prolonged value ([11]; male): 434 ms
inhibition [12]: 91% and 92.7% and 89.3%
IC50 [13]: 120 nM
